The source of these data is patent publication US4623535A, “Leukotriene antagonists” (SmithKline Beckman Corporation, priority 1984, dated 1986).

In the assay the target is T1, leukotriene D4 (LTD4) induced contraction of guinea pig tracheal spiral strips (Cavia porcellus, UniProt Q2NNR5).
T1 construct: Guinea pig (adult male albino Hartley strain) tracheal spiral strips; from tissue; host or cells: guinea pig trachea (spiral strips, adult male albino Hartley strain)
T1 sequence (Q2NNR5 1-340): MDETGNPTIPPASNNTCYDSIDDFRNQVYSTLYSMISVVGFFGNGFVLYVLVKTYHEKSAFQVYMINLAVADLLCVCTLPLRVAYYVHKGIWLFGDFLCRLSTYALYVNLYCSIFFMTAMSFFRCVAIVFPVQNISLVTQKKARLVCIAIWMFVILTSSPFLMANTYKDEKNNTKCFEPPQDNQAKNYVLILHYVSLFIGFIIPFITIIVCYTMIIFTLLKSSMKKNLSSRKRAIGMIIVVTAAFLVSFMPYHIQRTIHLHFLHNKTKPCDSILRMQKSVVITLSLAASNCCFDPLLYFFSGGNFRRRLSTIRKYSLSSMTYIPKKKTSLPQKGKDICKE
Nature of the assay: Inhibition of leukotriene (LTD4) induced contraction of guinea pig tracheal tissues in vitro. In kind it is cell-based, guinea pig (adult male albino Hartley strain). The note with it: LTD4 agonist, 30 min pretreatment with test compound, meclofenamic acid 1 μM, EC30 relative to carbachol (10 μM), read-out: In Vitro -Log KB (converted). On the procedure: The leukotriene antagonist activity of the compounds of this invention is measured by the ability of the compounds to inhibit the leukotriene induced contraction of guinea pig tracheal tissues in vitro. The following methodology was employed:
In vitro: Guinea pig (adult male albino Hartley strain) tracheal spiral strips of approximate dimensions 2 to 3 mm cross-sectional with and 3.5 cm length were bathed in modified Krebs buffer in jacketed 10 ml tissue bath and continuously aerated with 95% O2 /5% CO2. The tissues were connected via silk suture to force displacement transducers for recording isometric tension. The tissues were equilibrated for 1 hr., pretreated for 15 minutes with meclofenamic acid (1 μM) to remove intrinsic prostaglandin responses, and then pretreated for an additional 30 minutes with either the test compound or vehicle control. A cumulative concentration-response curve for LTD4 on triplicate tissues was generated by successive increases in the bath concentration of the LTD4. In order to minimize intertissue variability, the contractions elicited by LTD4 were standardized as a percentage of the maximum response obtained to a reference agonist, carbachol (10 μM).
Calculations: The averages of the triplicate LTD4 concentration-response curves both in the presence and absence of the test compound were plotted on log graph paper. The concentration of LTD4 needed to elicit 30% of the contraction elicited by carbachol was measured and defined as the EC30. The -log KB value for the test compound was determined by the following equations: [formula]
The antagonist activity of representative compounds of this invention is tabulated below. The -log KB values were calculated from the above test protocol.

The structures appear in SMILES notation.

Regarding `CCCCCCCCC#CC(SCCC(=O)O)SCCC(=O)O` [R1 = C8 H17, m = 2, n = 2, 4,6-Dithia-5-(1-decynyl)-nonanedioic acid], the Kb was 10 µM.
Next, `CCCCCCCCCCC#CC(SCC(=O)O)SCC(=O)O` [R1 = C10 H21, m = 1, n = 1, 3,5-dithia-4-(1-dodecynyl)-heptanedioic acid]: 5.01 µM; `CCCCCCCCCCC#CC(SCCC(=O)O)SCCC(=O)O` [R1 = C10 H21, m = 2, n = 2, 4,6-dithia-5-(1-dodecynyl)-nonanedioic acid]: 0.794 µM; `CCCCCCCCCCC#CC(SCCCC(=O)O)SCCCC(=O)O` [R1 = C10 H21, m = 3, n = 3, 5,7-dithia-6-(1-dodecynyl)-undecanedioic acid]: 3.16 µM.
Next, `CCCCCCCCCCCCC#CC(SCCC(=O)O)SCCC(=O)O` [R1 = C12 H25, m = 2, n = 2, 4,6-dithia-5-(1-tetradecynyl)-nonanedioic acid]: 2 µM.
